Assay results as given in ChEMBL document CHEMBL6109164, “Discovery of Novel DDR1 Inhibitors through a Hybrid Virtual Screening Pipeline, Biological Evaluation and Molecular Dynamics Simulations” (ACS Med Chem Lett, 2025).
Activity calls are given as the source filed them. The calls are words filed in the database; no cut-off is given here.

Tests used:
Z-138 = experiment: Cytotoxicity against human Z138 cells assessed as reduction in cell viability; type: functional, cell-based
[1] = biological target: Epithelial discoidin domain-containing receptor 1 (Homo sapiens) (UniProt Q08345); experiment: Binding affinity to DDR1 (unknown origin) at VAL624 residue assessed as occupancy relative to control
[2] = biological target: Epithelial discoidin domain-containing receptor 1 (Homo sapiens) (UniProt Q08345); experiment: Binding affinity to DDR1 (unknown origin) at LYS655 residue assessed as occupancy relative to control

Sequence of Epithelial discoidin domain-containing receptor 1 (Homo sapiens) (Q08345 whole entry, the tested form may be a part): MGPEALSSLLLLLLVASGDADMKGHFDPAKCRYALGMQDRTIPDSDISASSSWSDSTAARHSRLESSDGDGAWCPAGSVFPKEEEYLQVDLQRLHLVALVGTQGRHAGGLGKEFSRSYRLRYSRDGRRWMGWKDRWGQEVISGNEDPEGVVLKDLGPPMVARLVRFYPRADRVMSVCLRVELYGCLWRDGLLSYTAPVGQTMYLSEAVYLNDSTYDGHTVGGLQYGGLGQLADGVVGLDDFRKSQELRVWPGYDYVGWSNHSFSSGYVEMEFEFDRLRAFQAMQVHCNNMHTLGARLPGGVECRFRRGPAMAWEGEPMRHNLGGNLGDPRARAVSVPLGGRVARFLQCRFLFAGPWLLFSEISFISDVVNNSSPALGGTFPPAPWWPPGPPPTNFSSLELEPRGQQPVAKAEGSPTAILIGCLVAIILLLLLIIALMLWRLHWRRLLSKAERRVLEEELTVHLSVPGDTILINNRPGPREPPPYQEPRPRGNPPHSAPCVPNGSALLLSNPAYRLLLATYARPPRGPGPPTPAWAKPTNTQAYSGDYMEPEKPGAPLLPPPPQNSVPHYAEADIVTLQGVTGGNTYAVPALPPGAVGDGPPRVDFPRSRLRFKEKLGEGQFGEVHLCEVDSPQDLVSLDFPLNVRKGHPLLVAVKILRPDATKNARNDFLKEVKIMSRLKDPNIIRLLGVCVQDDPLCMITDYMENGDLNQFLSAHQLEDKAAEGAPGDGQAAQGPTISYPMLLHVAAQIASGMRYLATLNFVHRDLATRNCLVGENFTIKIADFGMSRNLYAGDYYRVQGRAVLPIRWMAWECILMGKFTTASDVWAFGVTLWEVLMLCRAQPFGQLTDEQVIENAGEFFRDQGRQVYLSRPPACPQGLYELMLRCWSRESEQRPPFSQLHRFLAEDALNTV

| SMILES | Activity (Z-138) | Occ [1] [%] | Occ [2] [%] |
| --- | --- | --- | --- |
| Cc1cc(Nc2cc(N3CCN(C)CC3)nc(Sc3ccc(NC(=O)C4CC4)cc3)n2)n[nH]1 | Active | – | – |
| CN1CCN(c2ccc(C(=O)Nc3n[nH]c4ccc(Cc5cc(F)cc(F)c5)cc34)c(NC3CCOCC3)c2)CC1 | Active | 82.8 | 69.9 |
